Consider two compounds from US20220168317A1, “Therapeutic Thiazine Dye Compositions and Methods of Use” (AB BioInnovations, Inc., priority 2020, published 2022).

Holding throughout (settings): final concentration in well; CAMHB, 37° C., 24 hours; single compound
The subject of assay [1] is Staphylococcus aureus ATCC BAA-44.
Procedure: (§1) Similarly, starting with a 1% methylene blue solution, a 2-fold serial dilution series was generated consisting of 24 members having a methylene blue concentration ranging from 1% to 1.1920929×10^−7%. Each dilution series was prepared using Cation-Adjusted Muller Hinton broth (CAMHB).
(§2) For each dilution series, 0.1 ml of each dilution, in order from most concentrated to least concentrated, was placed into a separate well of a 96-well tissue-culture plate. Select bacterial species were diluted in CAMHB so that 0.1 ml contained approximately 1×10^6 bacteria per ml. […] The tissue-culture plates were incubated at 37° C. for 24 hours.
(§3) After 24 hours, each well was visually assessed using a light microscope for bacterial growth.
(§4) 0.1 ml of each dilution, in order from most concentrated to least concentrated, was placed into an individual well of a 96-well tissue-culture plate. Select bacterial species were diluted in CAMHB so that 0.1 ml contained approximately 1×10^6 bacteria per ml. […] The tissue-culture plates were incubated at 37° C. for 24 hours.
(§5) After 24 hours, each well was visually assessed using a light microscope for bacterial growth. The dilution with the lowest concentrations capable of inhibiting bacterial growth was defined as the MIC.
The subject of assay [2] is Klebsiella pneumoniae ATCC 13883.
Procedure: Each dilution series was prepared using Cation-Adjusted Muller Hinton broth (CAMHB).
as §2, §3
Assay [3] has as its system Pseudomonas aeruginosa ATCC 27853.
Procedure: as §1, §2, §3, §4, §5

With `CN(C)c1ccc2nc3ccc(=[N+](C)C)cc-3sc2c1` [Methylene Blue, 3,7-bis(dimethylamine)-phenothiazin-5-ium chloride], the MIC stood at 0.003906% in assay [1], 0.25% in assay [2] and 0.5% in assay [3].
Consider `O=P(O)(O)O` [Phosphoric Acid, phosphoric acid], for which the MIC in assay [1], in assay [2] and in assay [3] was 0.332% throughout.
